Target: T1, human neutrophil elastase (HNE) (Homo sapiens, UniProt P08246)
T1 sequence (P08246 30-267): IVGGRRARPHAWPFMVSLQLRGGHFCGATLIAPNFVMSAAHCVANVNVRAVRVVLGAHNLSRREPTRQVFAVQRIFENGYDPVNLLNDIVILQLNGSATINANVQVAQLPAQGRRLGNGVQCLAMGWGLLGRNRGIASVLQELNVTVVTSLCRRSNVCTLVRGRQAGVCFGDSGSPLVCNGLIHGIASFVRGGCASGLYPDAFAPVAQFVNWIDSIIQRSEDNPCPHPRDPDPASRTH
Test: HNE inhibition assay
Assay type: biochemical

SMILES	IC50	fold more potent than the 5-chloro derivative 7b (ratio of HNE IC50 values)	fold less potent than the 5-chloro derivative 7b (ratio of HNE IC50 values)
Cc1cccc(C(=O)n2cc(C#N)c3cc(Cl)cnc32)c1 [Compound 7b, 5-Chloro-1-(3-methylbenzoyl)-1H-pyrrolo[2,3-b]pyridine-3-carbonitrile]	160 ± 50 nM	–	–
Cc1cccc(C(=O)n2c(C#N)cc3cccnc32)c1 [Compound 2d, 1-(3-Methylbenzoyl)-1H-pyrrolo[2,3-b]pyridine-2-carbonitrile]	3500 ± 1200 nM	–	–
Cc1cccc(C(=O)n2cc(C#N)c3cc(Br)cnc32)c1 [Compound 7a, 5-Bromo-1-(3-methylbenzoyl)-1H-pyrrolo[2,3-b]pyridine-3-carbonitrile]	51 ± 14 nM	about 3 fold	–
Cc1cccc(C(=O)n2cc(C#N)c3cc([N+](=O)[O-])cnc32)c1 [Compound 7c, 1-(3-Methylbenzoyl)-5-nitro-1H-pyrrolo[2,3-b]pyridine-3-carbonitrile]	400 ± 110 nM	–	about 2 fold
Cc1cccc(C(=O)n2c(C)c(C#N)c3cccnc32)c1 [Compound 2e, 2-Methyl-1-(3-methylbenzoyl)-1H-pyrrolo[2,3-b]pyridine-3-carbonitrile]	10800 ± 2200 nM	–	–

Second part, the compound after the results:

IC50	fold more potent than the 5-chloro derivative 7b (ratio of HNE IC50 values)	fold less potent than the 5-chloro derivative 7b (ratio of HNE IC50 values)	SMILES
130 ± 40 nM	–	–	Cc1cccc(C(=O)n2cc(C#N)c3cc(-c4cccc(C)c4)cnc32)c1 [Compound 14c, 1-(3-Methylbenzoyl)-5-(m-tolyl)-1H-pyrrolo[2,3-b]pyridine-3-carbonitrile]
180 ± 70 nM	–	–	Cc1cccc(C(=O)n2cc(C#N)c3cc(-c4cccc(C(F)(F)F)c4)cnc32)c1 [Compound 14b, 1-(3-Methylbenzoyl)-5-(3-(trifluoromethyl)phenyl)-1H-pyrrolo[2,3-b]pyridine-3-carbonitrile]
15 ± 4 nM	–	–	Cc1cccc(C(=O)n2cc(C#N)c3cc(-c4cccnc4)cnc32)c1 [Compound 14g, 1-(3-methylbenzoyl)-5-(pyridin-3-yl)-1H-pyrrolo[2,3-b]pyridine-3-carbonitrile]
70 ± 15 nM	–	–	COc1cccc(-c2cnc3c(c2)c(C#N)cn3C(=O)c2cccc(C)c2)c1 [Compound 14d, 5-(3-Methoxyphenyl)-1-(3-methylbenzoyl)-1H-pyrrolo[2,3-b]pyridine-3-carbonitrile]
42 ± 15 nM	–	–	Cc1cccc(C(=O)n2cc(C#N)c3cc(-c4ccsc4)cnc32)c1 [Compound 14f, 1-(3-methylbenzoyl)-5-(thiophen-3-yl)-1H-pyrrolo[2,3-b]pyridine-3-carbonitrile]
1600 ± 330 nM	–	–	COc1ccc2cc(-c3cnc4c(c3)c(C#N)cn4C(=O)c3cccc(C)c3)ccc2c1 [Compound 14e, 5-(6-Methoxynaphthalen-2-yl)-1-(3-methylbenzoyl)-1H-pyrrolo[2,3-b]pyridine-3-carbonitrile]
50 ± 20 nM	–	–	Cc1cccc(C(=O)n2cc(C#N)c3cc(-c4ccccc4)cnc32)c1 [Compound 14a, 1-(3-Methylbenzoyl)-5-phenyl-1H-pyrrolo[2,3-b]pyridine-3-carbonitrile]

Source: article PMC6687522 (Drug development research, 2019)
